This note sets out measurements from patent publication US8410310B2, “Trypsin-like serine protease inhibitors, and their preparation and use” (The Medicines Company (Leipzig) GmbH, priority 2006, dated 2013).

Test [1] concerns t-PA-induced lysis of whole blood clots. In words: Whole blood fibrinolysis assay (ROTEM, EXTEM with t-PA). The class given is cell-based, human. The note with it: human whole blood, t-PA 100 U/mL, Ly60; read-out: concentration resulting in 50% suppression of clot lysis (IC50, median [25%; 75% percentile]). The protocol:
(§1) Venous blood was withdrawn from the antecubital vein from healthy volunteers after written informed consent in accordance with local and federal guidelines with approval of the local review board (Ethikkommission, Klinikum Charité, Sauerbruchweg 5, 10117 Berlin). The blood was mixed with 0.11 mol/L sodium citrate (1:10). For ROTEM® analysis, whole citrated blood was used within 8 h after collection. Platelet-rich plasma (PRP) was prepared from citrated blood by centrifugation at 330×g for 10 min at room temperature, platelet-poor plasma (PPP) was collected following centrifugation at 1220×g for 12 min. The PRP was then adjusted to 3×10^8 platelets per mL using the autologous PPP. PRP was maintained at room temperature for less than 4 h before analysis. The remaining PPP was subjected to a high-speed centrifugation at 40,000×g for 30 min at 4° C. to remove any particulate material and was then stored at −70° C. until use.
(§2) The antifibrinolytic activity of Compound No. 3 in comparison to aprotinin and tranexamic acid was investigated in plasma and whole blood assays. In both assays, tissue factor was added to initiate rapid clot formation via the extrinsic pathway which produces a clot that remains stable for several hours under normal conditions. Supplementation of plasma or whole blood with tissue-type plasminogen activator (t-PA) before stimulation results in activation of endogenous plasminogen and thus fibrinolysis while the initial clot formation is not impaired. […] A final concentration of 50 U/mL and 100 U/mL in plasma and whole blood, respectively, was chosen to achieve complete lysis within about 60 min. In the presence of antifibrinolytics, clot lysis is delayed in a concentration-dependent manner.
Fibrinolysis in whole blood was studied with rotational thromboelastometry (Luddington, Clin. Lab. Haematol. 27: 81-90, 2005) using a computerized, multi-channel ROTEM® instrument (Pentapharm, Munich, Germany) (Ganter et al., Anesth. Analg. 106: 1366-75, 2008). Activation of test samples accelerated the measurement process and enhanced reproducibility compared with conventional thromboelastography. To allow observation of fibrinolysis, ROTEM® analysis with tissue factor activation (EXTEM) was modified through addition of t-PA (Nielsen et al. Blood Coagul. Fibrinolysis 17: 75-81, 2006). Citrated blood was pre-incubated at 37° C. for 5 min with test compound or saline before tissue factor, CaCl2 and t-PA (100 U/mL final concentration) were added to start the reaction. Fibrinolysis was determined by measuring loss of clot strength with time and was recorded as Ly60 (percentage reduction of the maximum amplitude at 60 min after the onset of clotting). In control samples without inhibitor, clots were lysed completely within 60 min, such that Ly60 was above 90%. By plotting Ly60 versus test compound concentration, IC50 values for each compound were calculated.

In test [2] the test system is t-PA-induced fibrinolysis in plasma. As to the kind of experiment: Plasma fibrinolysis assay (turbidometric). The settings on record: human plasma, t-PA 50 U/mL; read-out: IC50 on t-PA-induced fibrinolysis in plasma (median [25%; 75% percentile]). The class given is biochemical. The protocol: as §1, §2
Inhibition of fibrinolysis in plasma was examined using a turbidometric method in 96-well flat-bottom plates. The time course of clot formation and lysis, reflected by an initial increase and subsequent decrease in turbidity, was recorded by continuously measuring the optical density (OD) at 405 nm. Similar models have been used widely to study the clot lysis process in human plasma (Kim et al., J. Thromb. Haemost. 5: 1250-6, 2007) as well as its inhibition by antifibrinolytic drugs (Sperzel et al., J. Thromb. Haemost. 5: 2113-8, 2007). Frozen and thawed human plasma (PPP) was pre-incubated with test compound or vehicle (Owren's Veronal buffer) for 5 min at 37° C. […] OD at 405 nm was monitored every 45 s for 180 min at 37° C. with a microplate reader (POLARstar OPTIMA, BMG Labtech, Offenburg, Germany). Fibrinolysis was quantified as the relative decrease in OD at 45 min after the maximum OD was reached. […]

On to `NC[C@H]1CC[C@H](C(=O)O)CC1` [tranexamic acid, trans-4-(aminomethyl)cyclo-hexanecarboxylic acid], for which the IC50 in test [1] was determined as 2750 nM; in test [2] it was 4.22 µM.
